From patent US20250145665A1, “MACROCYCLIC PEPTIDES USEFUL AS MODULATORS OF TNF ALPHA” (Bristol-Myers Squibb Company, priority 2023, published 2025)
pIC50: −log10 of the molar value. Starred links: 1 amine or outer side, 2 acyl side, 3 side chain; linkers in the order of their positions; H or OH if unused. Positions of bridges follow the written chain, without caps; N, C: chain ends. Non-standard residues stand in square brackets, D forms with d. Residues, ends and D or L forms follow the SMILES beside them. ξ: configuration not given here. Bip(4'-COOH) = N[C@@H](Cc1ccc(-c2ccc(C(=O)O)cc2)cc1)C(=O)O; Bip(4'-NHAc) = CC(=O)Nc1ccc(-c2ccc(C[C@H](N)C(=O)O)cc2)cc1; Phe(3-CH2NH2) = O=C([C@H](Cc1cccc(CN[*:3])c1)N[*:1])[*:2]; Ala(morpholin-4-yl) = N[C@@H](CN1CCOCC1)C(=O)O; Phe(3-CONH2) = NC(=O)c1cccc(C[C@H](N)C(=O)O)c1; Bip = N[C@@H](Cc1ccc(-c2ccccc2)cc1)C(=O)O; Ala(2-furyl) = N[C@@H](Cc1ccco1)C(=O)O; Phe(2-Me) = Cc1ccccc1C[C@H](N)C(=O)O; 2Pal = N[C@@H](Cc1ccccn1)C(=O)O; 2Thi = N[C@@H](Cc1cccs1)C(=O)O; Cha = N[C@@H](CC1CCCCC1)C(=O)O; ξIle = CC[C@H](C)C(N)C(=O)O; Dab = NCC[C@H](N)C(=O)O; Sar = CNCC(=O)O

target: TNFα (Homo sapiens, UniProt P01375); assay: TNF-Induced HEK-Blue Assay; assay type: cell-based; conditions: HEK-Blue-CD40L cells, NF-kB-driven secreted alkaline phosphatase reporter; TNFα 0.5 ng/ml; 18 h; read-out: TNF induced HEK-Blue assay IC50 value
Sequence (P01375 77-233 limits assumed): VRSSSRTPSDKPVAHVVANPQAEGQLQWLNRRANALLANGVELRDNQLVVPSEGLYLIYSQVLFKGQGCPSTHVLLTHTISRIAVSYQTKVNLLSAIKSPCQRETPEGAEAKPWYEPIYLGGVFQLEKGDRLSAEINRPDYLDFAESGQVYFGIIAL

Row | pIC50 | SMILES
1 | 6.70 to 7.30 | CC(=O)Nc1ccc(-c2ccc(C[C@@H]3NC(=O)[C@H](Cc4ccc(-c5ccccc5)cc4)NC(=O)[C@H](CC4CCCCC4)NC(=O)CSC[C@@H](C(=O)NCC(N)=O)NC(=O)[C@H](CC(C)C)NC(=O)[C@H](Cc4cccc(C(N)=O)c4)NC(=O)[C@H](C(C)C)NC(=O)[C@@H]4CCCN4C(=O)[C@H](C(C)C)NC(=O)[C@@H](CCCNC(=N)N)NC(=O)[C@H](CC(=O)O)NC(=O)[C@@H]4CCCN4C(=O)CN(C)C3=O)cc2)cc1 [Example 240] ({CH2CO}-[Cha][Bip][Bip(4'-NHAc)][Sar]PD[dR]VPV[Phe(3-CONH2)]LCG-NH2; thioether N-13)
2 | 6.70 to 7.30 | CC(=O)Nc1ccc(-c2ccc(C[C@@H]3NC(=O)[C@H](Cc4ccc(-c5ccc(C(=O)O)cc5)cc4)NC(=O)[C@H](CC4CCCCC4)NC(=O)CSC[C@@H](C(=O)NCC(N)=O)NC(=O)[C@H](CC(C)C)NC(=O)[C@H](Cc4ccco4)NC(=O)[C@H](C(C)C)NC(=O)[C@@H]4CCCN4C(=O)[C@H](C(C)C)NC(=O)[C@@H](CCCNC(=N)N)NC(=O)[C@H](CC(=O)O)NC(=O)[C@@H]4CCCN4C(=O)CN(C)C3=O)cc2)cc1 [Example 246] ({CH2CO}-[Cha][Bip(4'-COOH)][Bip(4'-NHAc)][Sar]PD[dR]VPV[Ala(2-furyl)]LCG-NH2; thioether N-13)
3 | 6.70 to 7.30 | CC(=O)Nc1ccc(-c2ccc(C[C@@H]3NC(=O)[C@H](Cc4ccc(-c5ccc(C(=O)O)cc5)cc4)NC(=O)[C@H](CC4CCCCC4)NC(=O)CSC[C@@H](C(=O)NCC(N)=O)NC(=O)[C@H](CC(C)C)NC(=O)[C@H](Cc4cnc[nH]4)NC(=O)[C@H](C(C)C)NC(=O)[C@@H]4CCCN4C(=O)[C@H](CC(N)=O)NC(=O)[C@@H](CCCNC(=N)N)NC(=O)[C@H](CC(=O)O)NC(=O)[C@H](Cc4ccc(O)cc4)NC(=O)CN(C)C3=O)cc2)cc1 [Example 248] ({CH2CO}-[Cha][Bip(4'-COOH)][Bip(4'-NHAc)][Sar]YD[dR]NPVHLCG-NH2; thioether N-13)
4 | > 7.30 | CC(=O)Nc1ccc(-c2ccc(C[C@@H]3NC(=O)[C@H](Cc4ccc(-c5ccc(C(=O)O)cc5)cc4)NC(=O)[C@H](CC4CCCCC4)NC(=O)CSC[C@@H](C(=O)NCC(N)=O)NC(=O)[C@H](CC(C)C)NC(=O)[C@H](Cc4cccc(C(N)=O)c4)NC(=O)[C@H](C(C)C)NC(=O)[C@@H]4CCCN4C(=O)[C@H](C(C)C)NC(=O)[C@@H](CCCNC(=N)N)NC(=O)[C@H](CC(=O)O)NC(=O)[C@H](Cc4ccccn4)NC(=O)CN(C)C3=O)cc2)cc1 [Example 251] ({CH2CO}-[Cha][Bip(4'-COOH)][Bip(4'-NHAc)][Sar][2Pal]D[dR]VPV[Phe(3-CONH2)]LCG-NH2; thioether N-13)
5 | > 7.30 | CC(=O)Nc1ccc(-c2ccc(C[C@@H]3NC(=O)[C@H](Cc4ccc(-c5ccc(C(=O)O)cc5)cc4)NC(=O)[C@H](CC4CCCCC4)NC(=O)CSC[C@@H](C(=O)NCC(N)=O)NC(=O)[C@H](CC(C)C)NC(=O)[C@H](Cc4cccc(C(N)=O)c4)NC(=O)[C@H](C(C)C)NC(=O)[C@@H]4CCCN4C(=O)[C@H](C(C)C)NC(=O)[C@@H](CCCNC(=N)N)NC(=O)[C@H](CC(=O)O)NC(=O)[C@H](Cc4ccc(O)cc4)NC(=O)CN(C)C3=O)cc2)cc1 [Example 252] ({CH2CO}-[Cha][Bip(4'-COOH)][Bip(4'-NHAc)][Sar]YD[dR]VPV[Phe(3-CONH2)]LCG-NH2; thioether N-13)
6 | 5.70 to 6.70 | CC(=O)Nc1ccc(-c2ccc(C[C@@H]3NC(=O)[C@H](Cc4ccc(-c5ccc(C(=O)O)cc5)cc4)NC(=O)[C@H](CC4CCCCC4)NC(=O)CSC[C@@H](C(=O)NCC(N)=O)NC(=O)[C@H](CC(C)C)NC(=O)[C@H](Cc4cccc(CN)c4)NC(=O)[C@H](C(C)C)NC(=O)[C@@H]4CCCN4C(=O)[C@H](C(C)C)NC(=O)[C@@H](CCCNC(=N)N)NC(=O)[C@H](CC(=O)O)NC(=O)[C@@H]4CCCN4C(=O)CN(C)C3=O)cc2)cc1 [Example 254] ({CH2CO}-[Cha][Bip(4'-COOH)][Bip(4'-NHAc)][Sar]PD[dR]VPV[Phe(3-CH2NH2)]LCG-NH2; thioether N-13)
7 | 6.70 to 7.30 | CC(=O)Nc1ccc(-c2ccc(C[C@@H]3NC(=O)[C@H](Cc4ccc(-c5ccc(C(=O)O)cc5)cc4)NC(=O)[C@H](CC4CCCCC4)NC(=O)CSC[C@@H](C(=O)NCC(N)=O)NC(=O)[C@H](CC(C)C)NC(=O)[C@H](Cc4ccccc4C)NC(=O)[C@H](C(C)C)NC(=O)[C@@H]4CCCN4C(=O)[C@H](C(C)C)NC(=O)[C@@H](CCCNC(=N)N)NC(=O)[C@H](CC(=O)O)NC(=O)[C@@H]4CCCN4C(=O)CN(C)C3=O)cc2)cc1 [Example 255] ({CH2CO}-[Cha][Bip(4'-COOH)][Bip(4'-NHAc)][Sar]PD[dR]VPV[Phe(2-Me)]LCG-NH2; thioether N-13)
8 | 6.70 to 7.30 | CC[C@H](C)[C@@H]1NC(=O)[C@@H](CCCNC(=N)N)NC(=O)[C@H](CC(=O)O)NC(=O)[C@@H]2CCCN2C(=O)CN(C)C(=O)[C@H](Cc2ccc(-c3ccc(NC(C)=O)cc3)cc2)NC(=O)[C@H](Cc2ccc(-c3ccc(C(=O)O)cc3)cc2)NC(=O)[C@H](CC2CCCCC2)NC(=O)CSC[C@@H](C(=O)NCC(N)=O)NC(=O)[C@H](CC(C)C)NC(=O)[C@H](Cc2ccc(O)cc2)NC(=O)[C@H](C(C)C)NC(=O)[C@@H]2CCCN2C1=O [Example 256] ({CH2CO}-[Cha][Bip(4'-COOH)][Bip(4'-NHAc)][Sar]PD[dR]IPVYLCG-NH2; thioether N-13)
9 | > 7.30 | CC[C@H](C)[C@@H]1NC(=O)[C@@H](CCCNC(=N)N)NC(=O)[C@H](CC(=O)O)NC(=O)[C@H](Cc2cnc[nH]2)NC(=O)CN(C)C(=O)[C@H](Cc2ccc(-c3ccc(NC(C)=O)cc3)cc2)NC(=O)[C@H](Cc2ccc(-c3ccc(C(=O)O)cc3)cc2)NC(=O)[C@H](CC2CCCCC2)NC(=O)CSC[C@@H](C(=O)NCC(N)=O)NC(=O)[C@H](CC(C)C)NC(=O)[C@H](Cc2cnc[nH]2)NC(=O)[C@H](C(C)C)NC(=O)[C@@H]2CCCN2C1=O [Example 257] ({CH2CO}-[Cha][Bip(4'-COOH)][Bip(4'-NHAc)][Sar]HD[dR]IPVHLCG-NH2; thioether N-13)

Second part, the molecule before the results:

Row | SMILES | pIC50
10 | CC(=O)Nc1ccc(-c2ccc(C[C@@H]3NC(=O)[C@H](Cc4ccc(-c5ccc(C(=O)O)cc5)cc4)NC(=O)[C@H](CC4CCCCC4)NC(=O)CSC[C@@H](C(=O)N[C@@H](CCN)C(N)=O)NC(=O)[C@H](CC(C)C)NC(=O)[C@H](Cc4ccc(O)cc4)NC(=O)[C@H](C(C)C)NC(=O)[C@@H]4CCCN4C(=O)[C@H](C(C)C)NC(=O)[C@@H](CCCNC(=N)N)NC(=O)[C@H](CC(=O)O)NC(=O)[C@@H]4CCCN4C(=O)CN(C)C3=O)cc2)cc1 [Example 243] ({CH2CO}-[Cha][Bip(4'-COOH)][Bip(4'-NHAc)][Sar]PD[dR]VPVYLC[Dab]-NH2; thioether N-13) | 6.70 to 7.30
11 | CC(=O)Nc1ccc(-c2ccc(C[C@@H]3NC(=O)[C@H](Cc4ccc(-c5ccc(C(=O)O)cc5)cc4)NC(=O)[C@H](CC4CCCCC4)NC(=O)CSC[C@@H](C(=O)N[C@@H](CCC(N)=O)C(N)=O)NC(=O)[C@H](CC(C)C)NC(=O)[C@H](Cc4ccc(O)cc4)NC(=O)[C@H](C(C)C)NC(=O)[C@@H]4CCCN4C(=O)[C@H](C(C)C)NC(=O)[C@@H](CCCNC(=N)N)NC(=O)[C@H](CC(=O)O)NC(=O)[C@@H]4CCCN4C(=O)CN(C)C3=O)cc2)cc1 [Example 244] ({CH2CO}-[Cha][Bip(4'-COOH)][Bip(4'-NHAc)][Sar]PD[dR]VPVYLCQ-NH2; thioether N-13) | 5.70 to 6.70
12 | CC(=O)Nc1ccc(-c2ccc(C[C@@H]3NC(=O)[C@H](Cc4ccc(-c5ccc(C(=O)O)cc5)cc4)NC(=O)[C@H](CC4CCCCC4)NC(=O)CSC[C@@H](C(=O)NCC(N)=O)NC(=O)[C@H](CC(C)C)NC(=O)[C@H](Cc4cccs4)NC(=O)[C@H](C(C)C)NC(=O)[C@@H]4CCCN4C(=O)[C@H](C(C)C)NC(=O)[C@@H](CCCNC(=N)N)NC(=O)[C@H](CC(=O)O)NC(=O)[C@@H]4CCCN4C(=O)CN(C)C3=O)cc2)cc1 [Example 245] ({CH2CO}-[Cha][Bip(4'-COOH)][Bip(4'-NHAc)][Sar]PD[dR]VPV[2Thi]LCG-NH2; thioether N-13) | 5.70 to 6.70
13 | CC(=O)Nc1ccc(-c2ccc(C[C@@H]3NC(=O)[C@H](Cc4ccc(-c5ccc(C(=O)O)cc5)cc4)NC(=O)[C@H](CC4CCCCC4)NC(=O)CSC[C@@H](C(=O)NCC(N)=O)NC(=O)[C@H](CC(C)C)NC(=O)[C@H](Cc4ccc(O)cc4)NC(=O)[C@H](C(C)C)NC(=O)[C@@H]4CCCN4C(=O)[C@H](CC(N)=O)NC(=O)[C@@H](CCCNC(=N)N)NC(=O)[C@H](CC(=O)O)NC(=O)[C@@H]4CCCN4C(=O)CN(C)C3=O)cc2)cc1 [Example 247] ({CH2CO}-[Cha][Bip(4'-COOH)][Bip(4'-NHAc)][Sar]PD[dR]NPVYLCG-NH2; thioether N-13) | 6.70 to 7.30
14 | CC(=O)Nc1ccc(-c2ccc(C[C@@H]3NC(=O)[C@H](Cc4ccc(-c5ccccc5)cc4)NC(=O)[C@H](CC4CCCCC4)NC(=O)CSC[C@@H](C(=O)N[C@@H](CCC(=O)O)C(N)=O)NC(=O)[C@H](CC(C)C)NC(=O)[C@H](Cc4cnc[nH]4)NC(=O)[C@H](C(C)C)NC(=O)[C@@H]4CCCN4C(=O)[C@H](C(C)C)NC(=O)[C@@H](CCCNC(=N)N)NC(=O)[C@H](CC(=O)O)NC(=O)[C@H](Cc4ccc(O)cc4)NC(=O)CN(C)C3=O)cc2)cc1 [Example 249] ({CH2CO}-[Cha][Bip][Bip(4'-NHAc)][Sar]YD[dR]VPVHLCE-NH2; thioether N-13) | 6.70 to 7.30
15 | CC(=O)Nc1ccc(-c2ccc(C[C@@H]3NC(=O)[C@H](Cc4ccc(-c5ccccc5)cc4)NC(=O)[C@H](CC4CCCCC4)NC(=O)CSC[C@@H](C(=O)NCC(N)=O)NC(=O)[C@H](CC(C)C)NC(=O)[C@H](Cc4cnc[nH]4)NC(=O)[C@H](C(C)C)NC(=O)[C@@H]4CCCN4C(=O)[C@H](CC(N)=O)NC(=O)[C@@H](CCCNC(=N)N)NC(=O)[C@H](CC(=O)O)NC(=O)[C@@H]4CCCN4C(=O)CN(C)C3=O)cc2)cc1 [Example 253] ({CH2CO}-[Cha][Bip][Bip(4'-NHAc)][Sar]PD[dR]NPVHLCG-NH2; thioether N-13) | 6.70 to 7.30
16 | CC[C@H](C)C1NC(=O)[C@@H](CCCNC(=N)N)NC(=O)[C@H](CC(=O)O)NC(=O)[C@H](Cc2ccc(O)cc2)NC(=O)CN(C)C(=O)[C@H](Cc2ccc(-c3ccc(NC(C)=O)cc3)cc2)NC(=O)[C@H](Cc2ccc(-c3ccccc3)cc2)NC(=O)[C@H](CN2CCOCC2)NC(=O)CSC[C@@H](C(=O)NCC(N)=O)NC(=O)[C@H](CC(C)C)NC(=O)[C@H](Cc2cccs2)NC(=O)[C@H](C(C)C)NC(=O)[C@@H]2CCCN2C1=O (stereo partly shown) [Example 258] ({CH2CO}-[Ala(morpholin-4-yl)][Bip][Bip(4'-NHAc)][Sar]YD[dR][ξIle]PV[2Thi]LCG-NH2; thioether N-13) | 6.70 to 7.30
